Laboratory results as given in patent publication US20040171795A1, “Novel peptides” (priority 2000, published 2004).

How the values were obtained:
[1] = test system: cell (Vero, T24 or A549 of Example 9; not given); assay: Nucleic acid-introducing ability, luciferase-expressing plasmid (procedure of Example 9); assay type: cell-based; settings: for ability of introducing the nucleic acid into a cell: procedure of Example 9, luciferase-expressing plasmid; for Nucleic acid-introducing ability: class of fluorescent count per 1 mg of protein per 1 second, highest of peptide 1.25, 2.5, 5 μM, plasmid 1 μg/mL
Description: A cell line established from monkey kidney (Vero cell) and a human bladder cancer cell (T24 cell) purchased from American Type Culture Collection (ATCC) and human lung cancer cell (A549 cell) purchased from Dainippon Pharmaceutical were inoculated on a 24 well culture plate (manufactured by NALGEN NUNC) at 1×10^5 cells/well. Vero cell and A549 cell were cultivated in DMEM (manufactured by Life Technologies Oriental) supplemented with 10% fetal bovine serum (hereinafter referred to as FBS, manufactured by NICHIREI), and T24 cell was cultivated in McCoy's 5a (manufactured by Life Technologies Oriental) supplemented with 10% FBS in 5% CO2 atmosphere at 37° C. for 24 hours. After removing the medium, opti-MEM (manufactured by Life Technologies Oriental) prepared to have the concentration of the luciferase-expressing plasmid prepared in Example 7 of 1 μg/mL and the concentration of the peptide prepared in Example 1 of 1.25, 2.5, or 5 μM was added, and the cells were cultivated for 5 hours. Next, in the case of Vero cell and A549 cell, the culture medium was replaced with DMEM supplemented with 10% FBS, and in the case of T24 cell, the medium was replaced with McCoy's 5a supplemented with 10% FBS, and cultivation was continued in 5% CO2 atmosphere and at 37° C. for another 24 hours. The luciferase activity expressed in the cell was then measured by the method instructed in luciferase assay system (manufactured by Promega). To be more specific, the cells were washed with phosphate-buffered saline (hereinafter referred to as PBS, manufactured by SIGMA), and the cells were lyzed with Passive Lysis Buffer attached to the kit. 20 μL of this cell lysate and 100 μL of the Luciferase Assay Reagent II attached to the kit was added to a fluorescence-measuring plate (Microlite™ 1 plate, manufactured by Dynatech), and after mixing, fluorescence was measured for 1 second by using a multilabel counter (ARVO™ SY1420 MULTILABEL COUNTER, manufactured by Wallac Beltold.
Concentration of the protein in the cell lysate was measured by mixing 8 μL of the cell lysate and 200 μL of the protein assay solution (manufactured by Biorad) with 792 μL of ultrapure water in a disposable cuvette (UV fluorescent cuvette A204X, manufactured by Funakoshi), allowing the mixture to stand for 5 minutes at room temperature, and measuring the absorption at 595 nm with a spectrophotometer (DU640, manufactured by Beckman). Bovine serum albumin (BSA) was used for the standard protein. By using the thus obtained results, count per 1 second per 1 mg of protein of the cell lysate was calculated to thereby use the count as the luciferase activity, and the highest count in the three conditions of different peptide concentration was designated the gene-introducing ability of the peptide.
It is to be noted that the nucleic acid-introducing ability was classified as described below on the bases of the fluorescent count per 1 mg of protein per 1 second (cps/mg protein).

[2] = Affinity by surface plasmon resonance (Biacore 2000), flow cell 2; assay type: binding; settings: SPR, HPA chip, 0.1 mg/mL BSA; compared with flow cell 1
Experimental: (§1) The specific affinity of the peptide for phosphatidyl serine was evaluated by means of surface plasmon resonance (SPR) using Biacore 2000 (manufactured by Biacore). To be more specific, phosphatidyl choline was immobilized on flow cell 1, and 50% of phosphatidyl serine and 50% of phosphatidyl choline were immobilized on flow cell 2 of HPA chip (manufactured by Biacore), and ability of the peptide to bind to the phospholipid was evaluated in the presence of 0.1 mg/mL BSA to thereby evaluate the affinity.

[3] = Affinity by surface plasmon resonance (Biacore 2000), flow cell 1; assay type: binding; settings: SPR, HPA chip, 0.1 mg/mL BSA
Experimental: as §1

[4] = Measurement of CD spectrum; assay type: physicochemical
Experimental: The peptide dissolved in 10 mM phosphate buffer (pH=7) containing 50 mM NaCl was evaluated for its CD spectrum in the presence and in the absence of 5 mM SDS by using a circular dichroism spectrophotometer (J-500A, manufactured by JASCO). The cell length was 1 mm. The measurement was conducted at 35° C. for 6 times in total. FIGS. 7 to 9 are respectively views showing mean residue ellipticity in CD spectroscopy of the peptide of SEQ ID NO:1, the peptide of SEQ ID NO:4 and the peptide of SEQ ID NO:16. As evident in FIGS. 7 to 9, the mean residue ellipticity obtained in the presence of SDS was the so called W curve and local minimums were found in the areas at the wavelength of 205 to 210 nm and 220 to 225 nm, and α-helix structure was thereby confirmed.

[5] = test system: Vero cell; assay: Storage stability of the complex with nucleic acid (luciferase activity); assay type: cell-based, monkey; settings: luciferase-expressing plasmid 2 μg/mL, peptide 5 μM; reagents per attached protocol
Experimental: Luciferase-expressing plasmid was introduced in Vero cell in accordance with the procedure described in Example 9 by using the opti-MEM prepared to have a concentration of the luciferase-expressing plasmid prepared in Example 7 of 2 μg/mL and a concentration of the peptide of SEQ ID NO:4 prepared in Example 1 of 5 μM to thereby measure the luciferase activity. The opti-MEM containing plasmid and peptide used were the one which had been prepared immediately before the gene introduction, and the one which had been prepared 1 week (7 days) in advance and stored at 4° C.
For the purpose of reference, gene-introducing activity of Lipofectin and LipofectAMINE 2000 (manufactured by Life Technologies Oriental), which are commercially available plasmid-introducing agents, were also evaluated by mixing these reagent with luciferase-expressing plasmid in accordance with the attached protocol, and evaluating their gene-introducing activity after storing at 4° C. for 1 week.

[6] = Affinity for phosphatidyl serine (EIA, inhibition of human Factor VIII binding); settings: class of IC50 for inhibiting human Factor VIII binding, 5% BSA
Experimental: The specific affinity of the peptide for phosphatidyl serine was evaluated by measuring activity of the peptide for inhibiting the binding of the human Factor VIII to phosphatidyl serine by using human Factor VIII which is known to bind to phosphatidyl serine but not to phosphatidyl choline in the presence of serum albumin. To be more specific, 100 μL of ethanol solution containing 10 μg/mL of phospholipids at a phosphatidyl serine (manufactured by SIGMA): phosphatidyl choline (manufactured by SIGMA) ratio of 3:7 was added to the wells of a 96 well plate (Immulon I, manufactured by Dynatech), and exsiccated by using a centrifugal evaporator (EC-95C, manufactured by Sakuma Seisakusho) at 40° C. for 40 minutes. 200 μL each of TBS (10 mM Tris-HCl (pH 7.4) containing 1% bovine serum albumin (BSA Fraction V, hereinafter referred to as BSA, manufactured by Seikagaku Corporation) and 0.9% (W/V) NaCl solution were added to each well, and the wells were blocked by allowing the plate to stand at 37° C. for 2.5 hours. After washing the plate with water, 100 μL of TBS solution supplemented with 5% BSA mixed with human Factor VIII (manufactured by American Diagnostica) at a final concentration 1 μg/mL and the peptide of predetermined dose prepared in Example 1 was added to each well, and the reaction was allowed to take place at 4° C. for 24 hours.
After the completion of the reaction, the human Factor VIII that became bound to the phosphatidyl serine was measured by enzyme immunoassay (EIA) in accordance with the general procedure described in a book (“Enzyme Immunoassay (3rd ed.)”, Eiji Ishikawa et al., Igaku-Shoin, 1987). To be more specific, the measurement was conducted by using anti-human Factor VIII mouse monoclonal antibody (ESH8, manufactured by American Diagnostica) for the primary antibody, horseradish peroxidase-labeled anti-mouse IgG antibody (P0260, manufactured by Daco) for the secondary antibody, and tetramethylbenzidine for the chromogenic substrate, and measuring the absorption at a wavelength of 450 nm by using a reference wavelength of 630 nm on a spectrophotometer (NJ-2100, manufactured by Intermed).
Intensity of the affinity of the peptide for the phosphatidyl serine was evaluated by using the value obtained by subtracting the absorption of the well having no human Factor VIII added thereto from the absorption of the well having only the human Factor VIII added thereto as the control value (100%), and designating the peptide concentration at which the value 0.5 was obtained when the value obtained by subtracting the absorption of the well having only the peptide added thereto from the absorption of the well having a mixture of the human Factor VIII and the peptide added thereto were divided by the control value as the IC50 value, and evaluating the intensity to be ++ when the IC50 value was up to 1 μM, and +when the intensity was more than 1 μM but not more than 10 μM. It is to be noted that the specific affinity was evaluated to be none when the intensity was 10 μM or more.

[7] = Measurement of turbidity in BSA; assay type: physicochemical; settings: BSA 1%, peptide 50 μM, absorbance at 600 nm
Experimental: The solutions were evaluated for their absorbance at a wavelength of 600 nm by using a spectrophotometer (DU640, manufactured by Beckman).

IC50 [6] | Substance | ability of introducing the nucleic acid into a cell [1] | binding to flow cell 2 (50% phosphatidyl serine, 50% phosphatidyl choline) [2] | binding to flow cell 1 (phosphatidyl choline) [3] | α-helix structure in CD spectrum in the presence of SDS ([4]; 5 mM SDS, 10 mM phosphate buffer pH 7, 50 mM NaCl, 35° C.) | Nucleic acid-introducing ability [1] | gene-introducing activity after storing the complex at 4° C. for 1 week, relative to freshly prepared complex [5] | α-helix structure in CD spectrum in the absence of SDS ([4]; aqueous solution solely containing an inorganic salt, pH 7, 35° C.) | OD 600 [7]
 | SEQ ID NO:25: comparative peptide, same amino acid composition as SEQ ID NO:1 but an utterly random amino acid sequence (TIRYRPSHQIRLRAVLHLWIRYRPSHQIRLRAVLHWS; synthetic peptide using an automatic peptide synthesizer) [reference compound] | neither the nucleic acid-introducing ability | no binding | no binding | no α-helix structure is found |  |  |  | 
 | SEQ ID NO: 4: peptide of SEQ ID NO:1 with one or two locations substituted in the 18 amino acid sequence (TRYLRIHPRSWLHQIALRLRYLRIHPRSWLHQIALRS; synthetic peptide using an automatic peptide synthesizer) |  |  |  |  | 4+ (10,000,000 or more) | substantially equivalent | do not take α-helix structure | 
1000 to 10000 nM | SEQ ID NO: 8: peptide of SEQ ID NO:1 with one or two locations substituted in the 18 amino acid sequence (TRYLRIHPKSWVHQIALRLRYLKIHPRSWVHQIALRS; synthetic peptide using an automatic peptide synthesizer) |  |  |  |  | 3+ (1,000,000 to less than 10,000,000) |  |  | 0.01>
1000 to 10000 nM | SEQ ID NO: 10: peptide of SEQ ID NO:1 with one or two locations substituted in the 18 amino acid sequence (TRSLRIHPRSWVHQIALRLRSLRIHPRSWVHQIALRS; synthetic peptide using an automatic peptide synthesizer) |  |  |  |  | 3+ (1,000,000 to less than 10,000,000) |  |  | 0.01>
1000 to 10000 nM | SEQ ID NO: 11: peptide of SEQ ID NO:1 with one or two locations substituted in the 18 amino acid sequence (TRYLRIHPRLWVHQIALRLRYLRIHPRLWVHQIALRS; synthetic peptide using an automatic peptide synthesizer) |  |  |  |  | 3+ (1,000,000 to less than 10,000,000) |  |  | 0.01>
< 1000 nM | SEQ ID NO: 15: peptide of SEQ ID NO:1 with one or two locations substituted in the 18 amino acid sequence (TRYLRIRPRSWVRQIALRLRYLRIRPRSWVRQIALRS; synthetic peptide using an automatic peptide synthesizer) |  |  |  |  | 2+ (100,000 to less than 1,000,000) |  |  | 0.01>
< 1000 nM | SEQ ID NO: 17: peptide of SEQ ID NO:1 with one or two locations substituted in the 18 amino acid sequence (TRSLRIHPRLWVHQIALRLRSLRIHPRLWVHQIALRS; synthetic peptide using an automatic peptide synthesizer) |  |  |  |  | 2+ (100,000 to less than 1,000,000) |  |  | 0.01>
< 1000 nM | SEQ ID NO: 19: peptide of SEQ ID NO:1 with three locations substituted in the 18 amino acid sequence; preferred peptide (TRYLRLHPRSWLHQLALRLRYLRLHPRSWLHQLALRS; synthetic peptide using an automatic peptide synthesizer) |  |  |  |  | 4+ (10,000,000 or more) |  |  | 0.01>
< 1000 nM | SEQ ID NO: 23: deletion mutant of the peptide of SEQ ID NO:1 (TIHPRSWVHQIALRLRYLRIHPRSWVHQIAS; synthetic peptide using an automatic peptide synthesizer) | had the ability of introducing the nucleic acid into a cell |  |  |  | 2+ (100,000 to less than 1,000,000) |  |  | 0.01>
